Test results: ChEMBL document CHEMBL4387748, “Chalcone derivatives bearing chromen or benzo[f]chromen moieties: Design, synthesis, and evaluations of anti-inflammatory, analgesic, selective COX-2 inhibitory activities” (Bioorg Med Chem Lett, 2019)

How the values were obtained:
[1] = tested on: Mus musculus; assay: Anti-inflammatory activity in mouse assessed as inhibition of xylene-induced ear edema at 30 mg/kg, ip dosed prior to xylene challenge and measured 1 hr post xylene injection relative to control; format: functional
[2] = tested on: Mus musculus; assay: Analgesic activity in mouse at 30 mg/kg, ip measured after 60 mins by hot plate technique relative to control; format: functional; details: 1 h
[3] = Selectivity index, ratio of IC50 for COX1 (unknown origin) to IC50 for COX2 (unknown origin); details: Homo sapiens
[4] = biological target: Prostaglandin G/H synthase 1 (Ovis aries) (UniProt P05979)
[5] = biological target: Prostaglandin G/H synthase 2 (Ovis aries) (UniProt P79208)
Sequence of Prostaglandin G/H synthase 2 (Ovis aries) (P79208 whole entry, looked up): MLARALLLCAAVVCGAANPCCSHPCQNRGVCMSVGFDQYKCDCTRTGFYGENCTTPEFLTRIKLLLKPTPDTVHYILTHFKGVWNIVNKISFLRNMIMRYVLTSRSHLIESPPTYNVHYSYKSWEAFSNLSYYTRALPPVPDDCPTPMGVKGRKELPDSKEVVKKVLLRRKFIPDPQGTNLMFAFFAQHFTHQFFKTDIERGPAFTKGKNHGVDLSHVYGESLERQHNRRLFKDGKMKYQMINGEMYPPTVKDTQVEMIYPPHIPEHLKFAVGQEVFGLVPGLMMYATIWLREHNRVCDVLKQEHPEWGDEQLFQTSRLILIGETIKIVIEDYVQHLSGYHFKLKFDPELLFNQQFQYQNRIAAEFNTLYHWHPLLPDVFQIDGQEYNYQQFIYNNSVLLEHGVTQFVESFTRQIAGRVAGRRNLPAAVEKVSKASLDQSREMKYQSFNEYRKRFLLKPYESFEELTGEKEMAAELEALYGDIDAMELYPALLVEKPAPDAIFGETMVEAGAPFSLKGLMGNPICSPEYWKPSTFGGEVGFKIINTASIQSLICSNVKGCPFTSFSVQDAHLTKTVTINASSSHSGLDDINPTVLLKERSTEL

Row | Compound | inhibition in vivo at 30 mg/kg [1] [%] | inhibition in vivo at 30 mg/kg [2] [%] | Ratio IC50 [3] | IC50 [4] [µM] | IC50 [5] [µM]
1 | O=C(/C=C/C1=Cc2ccccc2OC1)c1ccc(F)cc1 | 65.6 | 66.7 to 100 | 22.5 | 8.32 | 0.37
2 | COc1ccc(C(=O)/C=C/C2=Cc3c(ccc4ccccc34)OC2)cc1OC | 55.1 | 96.2 to 100 | – | – | –
3 | O=C(/C=C/C1=Cc2c(ccc3ccccc23)OC1)c1ccccc1Cl | 66.1 | 96.2 to 100 | – | – | –
4 | O=C(/C=C/C1=Cc2c(ccc3ccccc23)OC1)c1ccc(Cl)cc1 | 67.1 | 96.2 to 100 | – | – | –
5 | CCc1ccc(C(=O)/C=C/C2=Cc3ccccc3OC2)cc1 | 68.1 | 66.7 to 100 | 15.9 | 6.22 | 0.39
6 | COc1ccc2c(c1)c(CC(=O)O)c(C)n2C(=O)c1ccc(Cl)cc1 [INDOMETHACIN] | 64.3 to 82.2 | – | – | – | –
7 | Cc1ccc(C(=O)/C=C/C2=Cc3c(ccc4ccccc34)OC2)cc1C | 54.2 | 96.2 to 100 | – | – | –
8 | O=C(/C=C/C1=Cc2ccccc2OC1)c1ccc(C(F)(F)F)cc1 | 75.5 | 100 | 9.34 | 7.75 | 0.83
9 | O=C(/C=C/C1=Cc2c(ccc3ccccc23)OC1)c1ccc([N+](=O)[O-])cc1 | 76.3 | 100 | 31.1 | 7.77 | 0.25
10 | CN(C)c1ccc(C(=O)/C=C/C2=Cc3ccccc3OC2)cc1 | 57.3 | 66.7 to 100 | – | – | –
11 | O=C(/C=C/C1=Cc2ccccc2OC1)c1cccc(Cl)c1 | 51 | 66.7 to 100 | – | – | –
12 | O=C(/C=C/C1=Cc2ccccc2OC1)c1ccccc1F | 64.4 | 66.7 to 100 | – | – | –
13 | O=C(/C=C/C1=Cc2c(ccc3ccccc23)OC1)c1ccc(Cl)cc1Cl | 84.1 | 100 | 27.3 | 7.92 | 0.29
14 | O=C(/C=C/C1=Cc2c(ccc3ccccc23)OC1)c1ccc(C(F)(F)F)cc1 | 83.6 | 100 | 26.1 | 8.63 | 0.33
15 | COc1ccc(C(=O)/C=C/C2=Cc3ccccc3OC2)cc1OC | 67.6 | 66.7 to 100 | 15.4 | 7.08 | 0.46
16 | O=C(/C=C/C1=Cc2c(ccc3ccccc23)OC1)c1cccc(Br)c1 | 67.9 | 96.2 to 100 | – | – | –
17 | O=C(/C=C/C1=Cc2ccccc2OC1)c1cccc(Br)c1 | 51.7 | 66.7 to 100 | – | – | –
18 | O=C(/C=C/C1=Cc2ccccc2OC1)c1ccccc1Br | 56.6 | 66.7 to 100 | – | – | –
19 | Nc1ccc(C(=O)/C=C/C2=Cc3ccccc3OC2)cc1 | 52.6 | 66.7 to 100 | – | – | –
20 | O=C(/C=C/C1=Cc2c(ccc3ccccc23)OC1)c1ccccc1Br | 79.8 | 96.2 to 100 | – | – | –

Row | Compound | inhibition in vivo at 30 mg/kg [1] [%] | inhibition in vivo at 30 mg/kg [2] [%] | Ratio IC50 [3] | IC50 [4] [µM] | IC50 [5] [µM]
21 | Nc1ccc(C(=O)/C=C/C2=Cc3c(ccc4ccccc34)OC2)cc1 | 67.1 | 96.2 to 100 | – | – | –
22 | O=C(/C=C/C1=Cc2ccccc2OC1)c1cccc(F)c1 | 52.4 | 66.7 to 100 | – | – | –
23 | O=C(/C=C/C1=Cc2c(ccc3ccccc23)OC1)c1cccc(Cl)c1 | 75 | 96.2 to 100 | – | – | –
24 | O=C(/C=C/C1=Cc2ccccc2OC1)c1ccc(Br)cc1 | 66 | 66.7 to 100 | 17.2 | 7.21 | 0.42
25 | CN(C)c1ccc(C(=O)/C=C/C2=Cc3c(ccc4ccccc34)OC2)cc1 | 67.2 | 96.2 to 100 | – | – | –
26 | Cc1ccc(C(=O)/C=C/C2=Cc3c(ccc4ccccc34)OC2)cc1 | 74.6 | 96.2 to 100 | – | – | –
27 | Cc1ccc(C(=O)/C=C/C2=Cc3ccccc3OC2)cc1 | 53.1 | 66.7 to 100 | – | – | –
28 | Cc1ccc(C(=O)/C=C/C2=Cc3ccccc3OC2)cc1C | 48.1 | 66.7 to 100 | – | – | –
29 | O=C(/C=C/C1=Cc2c(ccc3ccccc23)OC1)c1ccccc1F | 73.3 | 96.2 to 100 | 20.7 | 6.41 | 0.31
30 | O=C(/C=C/C1=Cc2ccccc2OC1)c1ccccc1Cl | 52.3 | 66.7 to 100 | – | – | –
31 | O=C(/C=C/C1=Cc2c(ccc3ccccc23)OC1)c1ccc(Br)cc1 | 57.5 | 96.2 to 100 | – | – | –
32 | O=C(/C=C/C1=Cc2ccccc2OC1)c1ccc(Cl)cc1 | 56.1 | 66.7 to 100 | – | – | –
33 | O=C(/C=C/C1=Cc2ccccc2OC1)c1ccc(Cl)cc1Cl | 53.3 | 66.7 to 100 | – | – | –
34 | O=C(/C=C/C1=Cc2c(ccc3ccccc23)OC1)c1cccc(F)c1 | 70.1 | 96.2 to 100 | – | – | –
35 | CCc1ccc(C(=O)/C=C/C2=Cc3c(ccc4ccccc34)OC2)cc1 | 83.1 | 96.2 to 100 | 20.7 | 8.89 | 0.43
36 | COc1ccc(C(=O)/C=C/C2=Cc3c(ccc4ccccc34)OC2)cc1 | 79.3 | 96.2 to 100 | 23.8 | 9.04 | 0.38
37 | O=C(/C=C/C1=Cc2c(ccc3ccccc23)OC1)c1ccc(F)cc1 | 57.3 | 96.2 to 100 | – | – | –
38 | COc1ccc(C(=O)/C=C/C2=Cc3ccccc3OC2)cc1 | 66.2 | 66.7 to 100 | 20 | 9.2 | 0.46
39 | O=C(/C=C/C1=Cc2ccccc2OC1)c1ccc([N+](=O)[O-])cc1 | 50.8 | 85.1 | – | – | –
